Results on 8 compounds are retold here after patent US20100075907A1, “NEUROMEDIN U RECEPTOR AGONISTS AND USES THEREOF” (priority 2006, published 2010).

Starred links: 1 amine or outer side, 2 acyl side, 3 side chain; linkers in the order of their positions; H or OH if unused. Non-standard residues stand in square brackets, D forms with d. Residues, ends and D or L forms follow the SMILES beside them. *: point of attachment. X1 = CC(C)CCC[C@@H](C)[C@H]1CC[C@H]2[C@@H]3CC=C4C[C@@H](OC(=O)C*)CC[C@]4(C)[C@H]3CC[C@]12C; X2 = CCN1C(=O)CC(SC[C@H](NC(C)=O)C(=O)NCCCOCCOCCOCCCN*)C1=O; Succinimide(1-Et,3-yl) = CCN1C(=O)CC(*)C1=O; Suc = O=C(CCC(=O)[*:2])[*:1]

The target of one assay is rat NMUR2 (Rattus norvegicus, UniProt Q9ESQ4). The assay is described as follows: FLIPR calcium mobilization assay, rat NMUR2. It counts as cell-based. More on the design: expressed in transfected cells; host or cells: FLP-In CHO or HEK-293 FLP-In cells (pcDNA5). The note with it: for EC50: FLIPR. An excerpt: (§1) Human, mouse or rat cDNAs encoding NMUR1 or NMUR2 (as described in Howard et al. Nature 406: 70-74 (2000) were subcloned in pcDNA5 (Invitrogen) and transfected into FLP-In CHO cells and HEK-293 FLP-In cells purchased from Invitrogen (Carlsbad, Calif.) using lipofectamine (Invitrogen). The Flp-In system allows integration and expression of a particular gene of interest at a specific genomic location utilizing the Flp recombinase from yeast. The transfected cells were selected by growth in medium containing 200 μg/mL hygromycin (Invitrogen). Populations were frozen at early passage numbers, and these stocks were used for further studies. Stable clones that expressed the mRNAs were identified functionally by FLIPR as well as by RT-PCR. […] Two different rodent NMUR1 cell lines were thus generated: one with the codon as predicted from the genomic databases and another cell line with an engineered methionine (ATG) as the start codon. Additionally, stable cell lines expressing the human receptors were generated in HEK-293/aeq17 cells which stably express the aequorin gene under the CMV promoter. The human NMUR2 cDNA was cloned into pcDNA3.1 and human NMUR1 was subcloned into pIRES-puro (Clontech, Mountain View, Calif.), after transfection cells were selected in media containing G418 and either hygromycin (NMUR2) or puromycin (NMUR1).
rat NMUR2, sequence (Q9ESQ4 whole entry): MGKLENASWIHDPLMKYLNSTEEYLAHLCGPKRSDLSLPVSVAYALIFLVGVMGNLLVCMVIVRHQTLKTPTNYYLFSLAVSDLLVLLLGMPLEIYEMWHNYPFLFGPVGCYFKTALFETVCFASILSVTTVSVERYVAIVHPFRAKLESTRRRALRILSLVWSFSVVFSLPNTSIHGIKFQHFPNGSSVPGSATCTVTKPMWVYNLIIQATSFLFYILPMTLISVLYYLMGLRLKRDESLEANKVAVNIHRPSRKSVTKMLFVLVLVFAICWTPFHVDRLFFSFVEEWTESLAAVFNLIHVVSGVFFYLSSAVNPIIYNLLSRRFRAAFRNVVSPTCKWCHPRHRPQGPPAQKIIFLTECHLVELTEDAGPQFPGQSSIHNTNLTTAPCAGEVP
(§2) The NMU receptors signal primarily through Gαq/11 proteins; therefore calcium mobilization assays can be utilized for functional activity.
(§3) Stable cell lines expressing human and or rodent NMUR1 or human NMUR2 receptors were plated at a density of 12,000 cells per well overnight on poly-lysine coated 384-well black-walled plates. The following day, the media was removed from the plates and the cells were subsequently loaded with Fluo-3 (Molecular Probes), a calcium sensitive dye, diluted in FLIPR buffer (1× Hank's buffered saline containing 20 mM HEPES, 0.1% BSA, 2.5 mM probenecid (Sigma) and 1.6 mM TR40). All reagents are from Invitrogen unless otherwise noted. Peptide stocks were resuspended in DMSO at a stock concentration of 2 mM and diluted in FLIPR buffer on the day of the experiment to a 4 μM working stock solution.
(§4) After a 90 minute incubation at room-temperature, cell plates were loaded onto a FLIPR (Molecular Devices) to monitor cellular fluorescence (excitation=488 nm; emission=540 nm) before and after compound/peptide addition. Eight to twelve point dose responses were tested on NMUR-expressing cell lines using FLIPR with 1 μM peptide as the highest dose. The response after peptide addition was taken as the maximum fluorescence units minus the fluorescence immediately prior to stimulation for each well. EC50 values were calculated using GraphPad Prism (San Diego, Calif.) software.
(§5) In vitro responses of Neuromedin U receptor agonists (NMU1 to NMU25) in the FLIPR assay for human (Table 3), mouse (Table 4) and rat (Table 5) NMUR1 and NMUR2. EC50s are reported in nM values. Percent activity refers to the maximum response at 1 μM compared to the hNMU-25 response at the same concentration. NT=not tested.
On the technique in general: Calcium assays in cells follow changes in intracellular calcium, usually with a dye or a luminescent sensor.

A further assay deals with T1, rat NMUR1-ATG (Rattus norvegicus, UniProt Q9JJI5).
T1 sequence (Q9JJI5 1-425): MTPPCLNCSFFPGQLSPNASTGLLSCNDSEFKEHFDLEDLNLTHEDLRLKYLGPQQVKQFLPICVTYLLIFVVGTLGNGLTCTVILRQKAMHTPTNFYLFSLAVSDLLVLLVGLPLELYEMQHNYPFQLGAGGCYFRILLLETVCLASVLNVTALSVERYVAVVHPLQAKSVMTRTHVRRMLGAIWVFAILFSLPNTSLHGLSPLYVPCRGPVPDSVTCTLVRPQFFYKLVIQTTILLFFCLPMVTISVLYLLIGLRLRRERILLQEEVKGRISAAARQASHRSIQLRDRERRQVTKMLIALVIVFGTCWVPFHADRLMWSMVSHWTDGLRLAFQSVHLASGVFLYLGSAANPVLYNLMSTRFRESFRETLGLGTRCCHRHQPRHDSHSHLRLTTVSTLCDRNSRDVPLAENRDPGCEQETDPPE
The assay is described as follows: FLIPR calcium mobilization assay, rat NMUR1-ATG. Set-up: expressed in transfected cells; host or cells: FLP-In CHO or HEK-293 FLP-In cells (pcDNA5). It counts as cell-based.
Source text: as §1, §2, §3, §4, §5

The mark [1] stands for this setting: maximum response at 1 μM compared to hNMU-25, rat NMUR2.
Where [2] appears, read: maximum response at 1 μM compared to hNMU-25, rat NMUR1-ATG.

As usually defined, the EC50 is the midpoint of the concentration-response curve. One may read the IC50 as the midpoint of a concentration-inhibition curve.

Regarding `CCN1C(=O)CC(SC[C@H](NC(C)=O)C(=O)NCC(=O)N[C@@H](Cc2ccc(O)cc2)C(=O)N[C@@H](Cc2ccccc2)C(=O)N[C@@H](CC(C)C)C(=O)N[C@@H](Cc2ccccc2)C(=O)N[C@@H](CCCNC(=N)N)C(=O)N2CCC[C@H]2C(=O)N[C@@H](CCCNC(=N)N)C(=O)N[C@@H](CC(N)=O)C(N)=O)C1=O` (stereo partly shown) [NMU6] (Ac-C(Succinimide(1-Et,3-yl))GYFLFRPRN-NH2), the “% Activity” value on rat NMUR2 (setting [1]) and on rat NMUR1-ATG (setting [2]) was 100% each time. For the same compound, the EC50 at rat NMUR1-ATG (FLIPR, rat NMUR1-ATG) turned out to be 1 nM.

For `CCN1C(=O)CC(SC[C@H](NC(C)=O)C(=O)N[C@@H](Cc2ccccc2)C(=O)N[C@@H](CCCNC(=N)N)C(=O)N[C@H](C(=O)N[C@@H](CC(=O)O)C(=O)N[C@@H](CCC(=O)O)C(=O)N[C@@H](CCC(=O)O)C(=O)N[C@@H](Cc2ccccc2)C(=O)N[C@@H](CCC(N)=O)C(=O)N[C@@H](CO)C(=O)N2CCC[C@H]2C(=O)N[C@@H](Cc2ccccc2)C(=O)N[C@@H](C)C(=O)N[C@@H](CO)C(=O)N[C@@H](CCC(N)=O)C(=O)N[C@@H](CO)C(=O)N[C@@H](CCCNC(=N)N)C(=O)NCC(=O)N[C@@H](Cc2ccc(O)cc2)C(=O)N[C@@H](Cc2ccccc2)C(=O)N[C@@H](CC(C)C)C(=O)N[C@@H](Cc2ccccc2)C(=O)N[C@@H](CCCNC(=N)N)C(=O)N2CCC[C@H]2C(=O)N[C@@H](CCCNC(=N)N)C(=O)N[C@@H](CC(N)=O)C(N)=O)C(C)C)C1=O` (stereo partly shown) [NMU8] (Ac-C(Succinimide(1-Et,3-yl))FRVDEEFQSPFASQSRGYFLFRPRN-NH2), the figures for the “% Activity” value at rat NMUR2 (setting [1]) and at rat NMUR1-ATG (setting [2]) were 94.7% and 97.2%, respectively.

In the case of `CC(=O)N[C@@H](CSCC(=O)O[C@H]1CC[C@@]2(C)C(=CC[C@H]3[C@@H]4CC[C@H]([C@H](C)CCCC(C)C)[C@@]4(C)CC[C@@H]32)C1)C(=O)NCC(=O)N[C@@H](Cc1ccc(O)cc1)C(=O)N[C@@H](Cc1ccccc1)C(=O)N[C@@H](CC(C)C)C(=O)N[C@@H](Cc1ccccc1)C(=O)N[C@@H](CCCNC(=N)N)C(=O)N1CCC[C@H]1C(=O)N[C@@H](CCCNC(=N)N)C(=O)N[C@@H](CC(N)=O)C(N)=O` [NMU11] (Ac-C(X1)GYFLFRPRN-NH2), the figures for the “% Activity” value on rat NMUR2 (setting [1]) and on rat NMUR1-ATG (setting [2]) were 33.2% and 50.9%, respectively.

For the compound `CCN1C(=O)CC(SC[C@H](NC(C)=O)C(=O)N[C@@H](Cc2ccccc2)C(=O)N[C@@H](CCCNC(=N)N)C(=O)N[C@H](C(=O)N[C@@H](CC(=O)O)C(=O)N[C@@H](CCC(=O)O)C(=O)N[C@@H](CCC(=O)O)C(=O)N[C@@H](Cc2ccccc2)C(=O)N[C@@H](CCC(N)=O)C(=O)N[C@@H](CO)C(=O)N2CCC[C@H]2C(=O)N[C@@H](Cc2ccccc2)C(=O)N[C@@H](C)C(=O)N[C@@H](CO)C(=O)N[C@@H](CCC(N)=O)C(=O)N[C@@H](CO)C(=O)N[C@@H](CCCNC(=N)N)C(=O)NCC(=O)N[C@@H](Cc2ccc(O)cc2)C(=O)N[C@@H](Cc2ccccc2)C(=O)N[C@H](C)C(=O)N[C@@H](Cc2c[nH]c3ccccc23)C(=O)N[C@@H](CCCNC(=N)N)C(=O)N2CCC[C@H]2C(=O)N[C@@H](CCCNC(=N)N)C(=O)N[C@@H](CC(N)=O)C(N)=O)C(C)C)C1=O` (stereo partly shown) [NMU13] (Ac-C(Succinimide(1-Et,3-yl))FRVDEEFQSPFASQSRGYF[dA]WRPRN-NH2), the EC50 on rat NMUR2 (rat NMUR2) was over 1000 nM. At rat NMUR2 (functional data, rat R2), the IC50 is over 1000 nM. For the same compound, the “% Activity” value at rat NMUR2 (functional, rat R2, relative to native hNMU responses) was found to be 24%; at rat NMUR2 (setting [1]), 0.0%; on rat NMUR1-ATG (functional, rat R1-ATG, relative to native hNMU responses) it was 92%; at rat NMUR1-ATG (setting [2]) it was 100%.

For `CCN1C(=O)CC(SC[C@H](NC(C)=O)C(=O)NCCCOCCOCCOCCCNC(=O)CCC(=O)N[C@@H](Cc2ccccc2)C(=O)N[C@@H](CC(C)C)C(=O)N[C@@H](Cc2ccccc2)C(=O)N[C@@H](CCCNC(=N)N)C(=O)N2CCC[C@H]2C(=O)N[C@@H](CCCNC(=N)N)C(=O)N[C@@H](CC(N)=O)C(N)=O)C1=O` (stereo partly shown) [NMU15, Ac-C1-Ttds-FLFRPRN-CONH2] ({X2-Suc}-FLFRPRN-NH2), the EC50 at rat NMUR2 (rat NMUR2) is 2.2 nM. Further, the “% Activity” value at rat NMUR2 (setting [1]) and on rat NMUR1-ATG (setting [2]) was 100% throughout.

As to `CCN1C(=O)CC(SC[C@H](NC(C)=O)C(=O)N[C@@H](C)C(=O)N[C@@H](CO)C(=O)N[C@@H](CCC(N)=O)C(=O)N[C@@H](CO)C(=O)N[C@@H](CCCNC(=N)N)C(=O)NCC(=O)N[C@@H](Cc2ccc(O)cc2)C(=O)N[C@@H](Cc2ccccc2)C(=O)N[C@@H](CC(C)C)C(=O)N[C@@H](Cc2ccccc2)C(=O)N[C@@H](CCCNC(=N)N)C(=O)N2CCC[C@H]2C(=O)N[C@@H](CCCNC(=N)N)C(=O)N[C@@H](CC(N)=O)C(N)=O)C1=O` (stereo partly shown) [NMU17] (Ac-C(Succinimide(1-Et,3-yl))ASQSRGYFLFRPRN-NH2), the “% Activity” value at rat NMUR2 (setting [1]) and on rat NMUR1-ATG (setting [2]) was 100% each time.

For the compound `CCN1C(=O)CC(SC[C@H](NC(C)=O)C(=O)N[C@@H](Cc2ccccc2)C(=O)N[C@@H](CCC(N)=O)C(=O)N[C@@H](CO)C(=O)N2CCC[C@H]2C(=O)N[C@@H](Cc2ccccc2)C(=O)N[C@@H](C)C(=O)N[C@@H](CO)C(=O)N[C@@H](CCC(N)=O)C(=O)N[C@@H](CO)C(=O)N[C@@H](CCCNC(=N)N)C(=O)NCC(=O)N[C@@H](Cc2ccc(O)cc2)C(=O)N[C@@H](Cc2ccccc2)C(=O)N[C@@H](CC(C)C)C(=O)N[C@@H](Cc2ccccc2)C(=O)N[C@@H](CCCNC(=N)N)C(=O)N2CCC[C@H]2C(=O)N[C@@H](CCCNC(=N)N)C(=O)N[C@@H](CC(N)=O)C(N)=O)C1=O` (stereo partly shown) [NMU19] (Ac-C(Succinimide(1-Et,3-yl))FQSPFASQSRGYFLFRPRN-NH2), the “% Activity” value on rat NMUR2 (setting [1]) and at rat NMUR1-ATG (setting [2]) was 100% each time.

As for `CCN1C(=O)CC(SC[C@H](NC(C)=O)C(=O)N[C@@H](CSC2CC(=O)N(CC)C2=O)C(=O)N[C@@H](Cc2ccccc2)C(=O)N[C@@H](CCCNC(=N)N)C(=O)N[C@H](C(=O)N[C@@H](CC(=O)O)C(=O)N[C@@H](CCC(=O)O)C(=O)N[C@@H](CCC(=O)O)C(=O)N[C@@H](Cc2ccccc2)C(=O)N[C@@H](CCC(N)=O)C(=O)N[C@@H](CO)C(=O)N2CCC[C@H]2C(=O)N[C@@H](Cc2ccccc2)C(=O)N[C@@H](C)C(=O)N[C@@H](CO)C(=O)N[C@@H](CCC(N)=O)C(=O)N[C@@H](CO)C(=O)N[C@@H](CCCNC(=N)N)C(=O)NCC(=O)N[C@@H](Cc2ccc(O)cc2)C(=O)N[C@@H](Cc2ccccc2)C(=O)N[C@@H](CC(C)C)C(=O)N[C@@H](Cc2ccccc2)C(=O)N[C@@H](CCCNC(=N)N)C(=O)N2CCC[C@H]2C(=O)N[C@@H](CCCNC(=N)N)C(=O)N[C@@H](CC(N)=O)C(N)=O)C(C)C)C1=O` (stereo partly shown) [NMU22] (Ac-C(Succinimide(1-Et,3-yl))C(Succinimide(1-Et,3-yl))FRVDEEFQSPFASQSRGYFLFRPRN-NH2), the “% Activity” value on rat NMUR2 (setting [1]) is listed as 98.8%; at rat NMUR1-ATG (setting [2]), 100%.
